Measured values taken from US20220306630A1, “AGONISTS OF ROR GAMMAt” (BRISTOL-MYERS SQUIBB COMPANY, priority 2019, published 2022).

Target: T1, RORgT (Homo sapiens, UniProt P51449)
T1 construct: Gal4 (fusion partner); expressed in transfected cells; host or cells: engineered Jurkat cells (Jurkat pEx/Gal/hRORγ CLBD/HYG pG5luc/blast)
T1 sequence (P51449 267-516): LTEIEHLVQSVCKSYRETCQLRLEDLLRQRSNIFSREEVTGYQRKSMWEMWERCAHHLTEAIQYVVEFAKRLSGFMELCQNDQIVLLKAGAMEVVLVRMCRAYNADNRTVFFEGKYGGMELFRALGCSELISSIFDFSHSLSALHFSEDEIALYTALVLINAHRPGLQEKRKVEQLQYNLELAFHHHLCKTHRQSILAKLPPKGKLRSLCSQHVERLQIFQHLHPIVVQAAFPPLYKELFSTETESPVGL
Test: RORgT Gal4 Luciferase Reporter Gene Assay
Assay type: cell-based
Settings: engineered Jurkat cells overexpressing RORgT (LBD or full length) with Gal4 Luc reporter; 18 hours at 37° C.; 40 μM to 0.67 nM; read-out: RORg_GAL4 EC50
Protocol: The compound and the cells were incubated for 18 hours at 37° C. in a cell culture incubator. Cells were then lysed with 15 uL of Steady-Glo Luciferase Assay reagent (Promega EZ550), followed by centrifuging the assay plates at 1500 RPM for 1 minute. Subsequently, the plates were read on the Envision (PerkinElmer). The inhibition of constitutive activity of RORgT achieved by graded concentrations of compound was calculated as a percentage of the luminescence signal window reduction over a control compound.

| Compound | EC50 [nM] |
| --- | --- |
| COc1ccc(Oc2c(Cl)ccc(C(=O)NC[C@H]3CC[C@H](C(=O)O)CC3)c2Cl)cc1C(C)C [Example 70] | 141 |
| COc1ncc(Oc2c(Cl)ccc(C(=O)NCC3CCN(S(C)(=O)=O)CC3)c2Cl)cc1C(C)C [Example 72] | 33 |
| COc1ncc(Oc2c(Cl)cc(NC(=O)CC3CCN(C(=O)C(F)(F)F)CC3)cc2Cl)cc1C(C)C [Example 74] | 49 |
| CC(C)c1cc(F)cc(Oc2c(Cl)ccc(NC(=O)Cc3ccc(S(C)(=O)=O)cc3)c2Cl)c1 [Example 75] | 33 |
| COc1ccc(Oc2c(Cl)ccc(C(=O)NCCc3cccnc3)c2Cl)cc1C(C)C [Example 76] | 922 |
| COC(=O)CNC(=O)c1ccc(Cl)c(Oc2ccc(OC)c(C(C)C)c2)c1Cl [Example 77] | 953 |
| COc1ccc(Oc2c(Cl)ccc(C(=O)N(C)C)c2Cl)cc1C(C)C [Example 78] | 1050 |
| COc1ccc(Oc2c(Cl)ccc(C(=O)NCCCn3ccnc3)c2Cl)cc1C(C)C [Example 80] | 287 |
| COc1ccc(Oc2c(Cl)ccc(C(=O)NCCCCO)c2Cl)cc1C(C)C [Example 81] | 1310 |
| COc1ccc(Oc2c(Cl)ccc(C(=O)NCc3cccc(S(C)(=O)=O)c3)c2Cl)cc1C(C)C [Example 82] | 7600 |
| COc1ccc(Oc2c(Cl)ccc(C(=O)NCCN3CCCC3=O)c2Cl)cc1C(C)C [Example 83] | 1170 |
| COc1ccc(Oc2c(Cl)ccc(C(=O)NCCC3CCS(=O)(=O)CC3)c2Cl)cc1C(C)C [Example 84] | 152 |
| COc1ccc(Oc2c(Cl)ccc(CNC(=O)Cc3cccc(S(C)(=O)=O)c3)c2Cl)cc1C(C)C [Example 87] | 541 |
| COc1ccc(Oc2c(Cl)ccc(CNC(=O)CN3CCNCC3)c2Cl)cc1C(C)C [Example 89] | 4080 |
| COc1ccc(Oc2c(Cl)ccc(C(=O)NCC3CN(S(C)(=O)=O)C3)c2Cl)cc1C(C)C [Example 91] | 88 |
| COc1ccc(Oc2c(Cl)ccc(C(=O)NCC3CCN(S(=O)(=O)C(C)C)CC3)c2Cl)cc1C(C)C [Example 93] | 167 |
| CCS(=O)(=O)N1CCC(CNC(=O)c2ccc(Cl)c(Oc3ccc(OC)c(C(C)C)c3)c2Cl)CC1 [Example 94] | 26 |
| COc1ccc(Oc2c(Cl)ccc(CNC(=O)C3CCN(S(=O)(=O)C(C)C)CC3)c2Cl)cc1C(C)C [Example 95] | 24 |
| COc1ccc(Oc2c(Cl)ccc(C(=O)NCc3ccc(S(=O)(=O)N(C)C)nc3)c2Cl)cc1C(C)C [Example 99] | 153 |

| Compound | EC50 [nM] |
| --- | --- |
| COc1ccc(Oc2c(Cl)ccc(C(=O)NCC3CCS(=O)(=O)CC3)c2Cl)cc1C(C)C [Example 100] | 117 |
| CNC(=O)c1ccc(CNC(=O)c2ccc(Cl)c(Oc3ccc(OC)c(C(C)C)c3)c2Cl)cc1 [Example 102] | 455 |
| COc1ccc(Oc2c(Cl)ccc(C(=O)N(C)CC3CCN(S(N)(=O)=O)CC3)c2Cl)cc1C(C)C [Example 103] | 50 |
| COc1ccc(Oc2c(Cl)ccc(C(=O)NC(C)c3ccc(S(C)(=O)=O)cc3)c2Cl)cc1C(C)C (centres unmarked) [Example 105] | 30 |
| COc1ccc(Oc2c(Cl)ccc(NC(=O)CN3CCN(S(C)(=O)=O)CC3)c2Cl)cc1C(C)C [Example 106] | 32 |
| COc1ccc(Oc2c(Cl)ccc(C(=O)N3CCC4(CCN(S(C)(=O)=O)CC4)C3)c2Cl)cc1C(C)C [Example 107] | 35 |
| COc1ccc(Oc2c(Cl)ccc(C(=O)N3CCc4cc(N)ccc4C3)c2Cl)cc1C(C)C [Example 108] | 766 |
| COc1ccc(Oc2c(Cl)ccc(C(=O)N(C)Cc3ccc(S(N)(=O)=O)cc3)c2Cl)cc1C(C)C [Example 110] | 39 |
| COC(=O)N1CCC(CNC(=O)c2ccc(Cl)c(Oc3ccc(OC)c(C(C)C)c3)c2Cl)CC1 [Example 111] | 936 |
| CC(C)c1cc(Oc2c(Cl)ccc(C(=O)NCC3CCN(S(C)(=O)=O)CC3)c2Cl)ccc1F [Example 113] | 27 |
| CCS(=O)(=O)N1CCC(CNC(=O)c2ccc(Cl)c(Oc3cc(F)cc(C(C)C)c3)c2Cl)CC1 [Example 115] | 25 |
| CC(C)c1cc(F)cc(Oc2c(Cl)ccc(C(=O)NCC3CCN(S(=O)(=O)C(C)C)CC3)c2Cl)c1 [Example 116] | 350 |
| COc1ncc(Oc2c(Cl)ccc(C(=O)N3CCC4(CC3)CN(S(C)(=O)=O)C4)c2Cl)cc1C(C)C [Example 118] | 61 |
| CCS(=O)(=O)N1CCC(CC(=O)Nc2cc(Cl)c(Oc3cnc(OC)c(C(C)C)c3)c(Cl)c2)CC1 [Example 120] | 37 |
| CCS(=O)(=O)N1CC2(CCN(C(=O)c3ccc(Cl)c(Oc4cc(F)cc(C(C)C)c4)c3Cl)CC2)C1 [Example 124] | 121 |
| CC(C)c1cc(F)cc(Oc2c(Cl)ccc(C(=O)N3CCC4(CC3)CN(S(=O)(=O)C3CC3)C4)c2Cl)c1 [Example 125] | 548 |
| COc1ncc(Oc2c(Cl)cc(NC(=O)CC3CCN(S(=O)(=O)CCl)CC3)cc2Cl)cc1C(C)C [Example 127] | 35 |
| CC(C)c1cc(F)cc(Oc2c(Cl)ccc(C(=O)NCc3cnn(S(C)(=O)=O)c3)c2Cl)c1 [Example 128] | 139 |
| COc1ncc(Oc2c(Cl)ccc(C(=O)NCc3cccc(S(C)(=O)=O)c3)c2Cl)cc1C(C)C [Example 138] | 225 |

Further compounds by falling EC50, results first:

| EC50 [nM] | Compound |
| --- | --- |
| 24 | COc1ccc(Oc2c(Cl)ccc(CNC(=O)C3CN(S(C)(=O)=O)C3)c2Cl)cc1C(C)C [Example 88] |
| 24 | COc1ccc(Oc2c(Cl)ccc(C(=O)NCC3CCN(S(=O)(=O)C4CC4)CC3)c2Cl)cc1C(C)C [Example 92] |
| 20 | COc1ccc(Oc2c(Cl)ccc(CNS(=O)(=O)C3CCN(S(N)(=O)=O)CC3)c2Cl)cc1C(C)C [Example 98] |
| 18 | C=C(C)c1cc(Oc2c(Cl)cc(NC(=O)CC3CCN(S(C)(=O)=O)CC3)cc2Cl)cnc1OC [Example 73] |
| 18 | COc1ccc(Oc2c(Cl)ccc(C(=O)NCc3ccc(S(C)(=O)=O)cc3)c2Cl)cc1C(C)C [Example 79] |
| 17 | COc1ccc(Oc2c(Cl)ccc(C(=O)N3CCC4(CC3)CN(S(C)(=O)=O)C4)c2Cl)cc1C(C)C [Example 109] |
| 15 | C=C(C)c1cc(Oc2c(Cl)ccc(C(=O)NCC3CCN(S(C)(=O)=O)CC3)c2Cl)cnc1OC [Example 71] |
| 15 | COc1ccc(Oc2c(Cl)ccc(C(=O)N(C)CC3CCN(S(C)(=O)=O)CC3)c2Cl)cc1C(C)C [Example 104] |
| 14 | COc1ccc(Oc2c(Cl)ccc(CNC(=O)C3CCN(S(=O)(=O)C4CC4)CC3)c2Cl)cc1C(C)C [Example 97] |
| 14 | COc1ccc(Oc2c(Cl)ccc(C(=O)NCc3ccc(S(N)(=O)=O)nc3)c2Cl)cc1C(C)C [Example 101] |
| 14 | CC(C)c1cc(F)cc(Oc2c(Cl)ccc(C(=O)N3CCC4(CC3)CN(S(C)(=O)=O)C4)c2Cl)c1 [Example 112] |
| 14 | COc1ncc(Oc2c(Cl)ccc(C(=O)NC(C)c3ccc(S(C)(=O)=O)cc3)c2Cl)cc1C(C)C (centres unmarked) [Example 137] |
| 13 | COc1ccc(Oc2c(Cl)ccc(CNC(=O)CN3CCN(S(N)(=O)=O)CC3)c2Cl)cc1C(C)C [Example 90] |
| 13 | COc1ccc(Oc2c(Cl)ccc(C(=O)NCC3CCN(S(N)(=O)=O)CC3)c2Cl)cc1C(C)C [Example 96] |
| 13 | COc1ncc(Oc2c(Cl)cc(NC(=O)CC3CCN(S(N)(=O)=O)CC3)cc2Cl)cc1C(C)C [Example 121] |
| 13 | CC(C)c1cc(F)cc(Oc2c(Cl)ccc(C(=O)NC(C)c3ccc(S(C)(=O)=O)cc3)c2Cl)c1 (centres unmarked) [Example 136] |
| 12 | COc1ccc(Oc2c(Cl)ccc(C(=O)NCC3CCN(S(C)(=O)=O)CC3)c2Cl)cc1C(C)C [Example 86] |
| 11 | COc1ncc(Oc2c(Cl)cc(NC(=O)CC3CCN(S(=O)(=O)C4CC4)CC3)cc2Cl)cc1C(C)C [Example 119] |
| 11 | COc1ncc(Oc2c(Cl)ccc(NC(=O)CC3CCN(S(C)(=O)=O)CC3)c2Cl)cc1C(C)C [Example 129] |
| 11 | COc1ncc(Oc2c(Cl)ccc(C(=O)NC(C)c3ccc(S(C)(=O)=O)cc3)c2Cl)cc1C(C)C (centres unmarked) [Example 135] |
| 6.3 | CC(C)c1cc(Oc2c(Cl)ccc(C(=O)N3CCC4(CC3)CN(S(C)(=O)=O)C4)c2Cl)ccc1F [Example 132] |
| 6 | COc1ncc(Oc2c(Cl)ccc(C(=O)NCc3ccc(S(N)(=O)=O)cc3)c2Cl)cc1C(C)C [Example 117] |
| 5.5 | CC(C)c1cc(F)cc(Oc2c(Cl)ccc(NC(=O)CC3CCN(S(C)(=O)=O)CC3)c2Cl)c1 [Example 130] |
| 5.4 | COc1ncc(Oc2c(Cl)ccc(C(=O)NCc3ccc(S(C)(=O)=O)cc3)c2Cl)cc1C(C)C [Example 123] |
| 5.2 | CC(C)c1cc(Oc2c(Cl)ccc(C(=O)NCc3ccc(S(N)(=O)=O)cc3)c2Cl)ccc1F [Example 114] |
| 4.6 | C=C(c1cc(Oc2c(Cl)cc(NC(=O)CC3CCN(S(C)(=O)=O)CC3)cc2Cl)cnc1OC)C(F)(F)F [Example 133] |
| 3.6 | CC(C)c1cc(F)cc(Oc2c(Cl)ccc(C(=O)NCc3ccc(S(C)(=O)=O)cc3)c2Cl)c1 [Example 122] |
| 3.2 | COc1ncc(Oc2c(Cl)cc(NC(=O)CC3CCN(S(C)(=O)=O)CC3)cc2Cl)cc1C1CC1 [Example 126] |
| 3.2 | COc1ncc(Oc2c(Cl)cc(NC(=O)CC3CCN(S(C)(=O)=O)CC3)cc2Cl)cc1C(C)C(F)(F)F (centres unmarked) [Example 134] |
| 2.7 | CC(C)c1cc(Oc2c(Cl)ccc(C(=O)NCc3ccc(S(C)(=O)=O)cc3)c2Cl)ccc1F [Example 131] |
